Test results: US8008487B2, “Substituted thieno[2,3-D]pyrimidines as fungicides” (priority 2004, dated 2011)

Experiments:
Type in all cases: in vivo
[1] = system: Cochliobolus sativus; experiment: Spot Blotch of Wheat (COCHSA), whole-plant fungicide test; settings: Bipolaris sorokiniana, 24 h, one-day protectant test, read-out: COCHSA percent control of disease; for pest or weed control at 200 ppm: foliar, 200 ppm on foliage
Procedure: The activity of the compounds as effective fungicides was determined by applying the compounds to plants and observing control of fungal disease. The compounds were formulated at 200 ppm in 10 vol. percent acetone plus 90 vol. percent Triton X water (deionized water 99.99 wt. percent+0.01 wt. percent Triton X100), giving a “formulated test compound.” In a few cases, compounds were formulated at 100, 75 or 8.3 ppm rather than 200 ppm in 10 vol. percent acetone plus 90 vol. percent Triton X water (deionized water 99.99 wt. percent+0.01 wt. percent Triton X100), giving a ‘formulated test compound’. The compounds were tested for ability to control plant diseases in a 1-day protectant test (1DP) or a 2-day curative test (2DC). Formulated test compounds were applied to plants using a turn table sprayer fitted with two opposing air atomization nozzles which delivered approximately 1500 L/ha of spray volume. Plants were inoculated with spores of the fungus the next day (1DP), then incubated in an environment conducive to disease development. In a few cases, the compounds were tested for ability to control plant disease in a two-day curative test. Plants were inoculated with spores of the fungus two days prior to compound application, and incubated in an environment conducive to disease development both before and after compound application (2DC). For all types of tests, disease severity was evaluated 4 to 28 days later, depending on the speed of disease development.
Each pot contained 3-8 seedlings. These plants were sprayed until wet with the formulated test compound. On the following day, the leaves were inoculated with an aqueous spore suspension of Cochliobolus sativus and the plants were kept in high humidity for one to two days to permit spores to germinate and infect the leaf. The plants were then transferred to a greenhouse until disease developed on untreated control plants.
The following table presents the activity of typical compounds of the present invention when evaluated in these experiments. The effectiveness of the test compounds in controlling disease was determined by assessing the severity of disease on treated plants, then converting the severity to percent control based on the level of disease on untreated, inoculated plants.
TABLE 4: Activity of compounds as fungicides. Data are the level at which the given disease was controlled when the given compound was applied to the foliage of the plant at 200 ppm. In a few cases (noted in the table) the compound was applied to the plant at 100, 75 or 8.3 ppm. The plant was inoculated with the fungus one day after treatment. In a few cases (noted in the table) the plant was inoculated with the fungus two days before treatment.

[2] = system: Colletotricum lagenarium; experiment: Cucumber Anthracnose (COLLLA), whole-plant fungicide test; settings: Cucumis sativus, foliar, 24 h, 200 ppm on foliage, one-day protectant test, read-out: COLLLA percent control of disease
[3] = system: Erysiphe cichoracaerum; experiment: Cucumber Powdery Mildew (ERYSCI), whole-plant fungicide test; settings: Erysiphe, foliar, 24 h, 200 ppm on foliage, one-day protectant test, read-out: ERYSCI percent control of disease
[4] = system: Erysiphe graminis f. sp. tritici; experiment: Powdery Mildew of Wheat (ERYSGT), whole-plant fungicide test; settings: Blumeria graminis, 24 h, one-day protectant test, read-out: ERYSGT percent control of disease; for pest or weed control at 200 ppm: foliar, 200 ppm on foliage
[5] = system: Leptosphaeria nodorum; experiment: Glume Blotch of Wheat (LEPTNO), whole-plant fungicide test; settings: Parastagonospora nodorum, foliar, 24 h, 200 ppm on foliage, one-day protectant test, read-out: LEPTNO percent control of disease
[6] = system: Phytophthora infestans; experiment: whole plant or invertebrate; settings: Phytophthora infestans, in Solanum lycopersicum, foliar, 24 h, read-out: PHYTIN percent control of disease, 200 ppm on foliage, tomato, one-day protectant test
[7] = system: Puccinia recondita tritici; experiment: Leaf Rust of Wheat (PUCCRT), whole-plant fungicide test; settings: Puccinia recondita, foliar, 24 h, 200 ppm on foliage, one-day protectant test, read-out: PUCCRT percent control of disease
[8] = system: Magnaporthe grisea; experiment: whole plant or invertebrate; settings: Pyricularia oryzae, in Oryza sativa, foliar, 24 h, read-out: PYRIOR percent control of disease, 200 ppm on foliage, rice, one-day protectant test
[9] = system: Septoria tritici; experiment: Speckled Leaf Blotch of Wheat (SEPTTR), whole-plant fungicide test; settings: Zymoseptoria tritici, 24 h, one-day protectant test, read-out: SEPTTR percent control of disease; for pest or weed control at 200 ppm: foliar, 200 ppm on foliage

Row | SMILES | pest or weed control at 200 ppm [1] [%] | pest or weed control at 200 ppm [2] [%] | pest or weed control at 200 ppm [3] [%] | pest or weed control at 200 ppm [4] [%] | pest or weed control at 200 ppm [5] [%] | pest or weed control at 200 ppm [6] [%] | pest or weed control at 200 ppm [7] [%] | pest or weed control at 200 ppm [8] [%] | pest or weed control at 200 ppm [9] [%] | pest or weed control at 100 ppm ([1]; 100 ppm (footnote a)) [%] | pest or weed control at 100 ppm ([4]; 100 ppm (footnote a)) [%] | pest or weed control at 100 ppm ([9]; 100 ppm (footnote a)) [%]
1 | CC(C)c1ccc(C(C)Nc2ncnc3scc(Cl)c23)nc1 (stereo not drawn) [Compound 34] | 0 to 49 | 50 to 79 | 80 to 100 | 80 to 100 | 80 to 100 | 0 to 49 | 80 to 100 | 80 to 100 | 50 to 79 |  |  | 
2 | CC(Nc1ncnc2scc(Cl)c12)c1cccn1C (stereo not drawn) [Compound 13] | 0 to 49 | 0 to 49 | 0 to 49 | 0 to 49 | 0 to 49 | 0 to 49 | 0 to 49 | 50 to 79 | 0 to 49 |  |  | 
3 | COc1ccc(C(C)Nc2ncnc3scc(Br)c23)cn1 (stereo not drawn) [Compound 45, (5-Bromothieno[2,3-d]pyrimidin-4-yl)-[1-(2-methoxypyridin-5-yl)ethyl]amine] | 0 to 49 | 0 to 49 | 80 to 100 | 80 to 100 | 50 to 79 | 80 to 100 | 80 to 100 | 80 to 100 | 50 to 79 |  |  | 
4 | CC(Nc1ncnc2scc(Cl)c12)c1ccc(OCl)nc1 (stereo not drawn) [Compound 29] |  | 0 to 49 | 80 to 100 |  | 80 to 100 | 80 to 100 | 80 to 100 | 80 to 100 |  | 0 to 49 | 80 to 100 | 50 to 79
5 | CC(Nc1ncnc2scc(Cl)c12)c1ccc(C(F)(F)F)nc1 (stereo not drawn) [Compound 44] | 50 to 79 | 0 to 49 | 80 to 100 | 0 to 49 | 50 to 79 | 50 to 79 | 80 to 100 | 80 to 100 | 0 to 49 |  |  | 
6 | CC(COc1ccccn1)Nc1ncnc2scc(Cl)c12 (stereo not drawn) [Compound 37, 5-(chlorothieno[2,3-d]pyrimidin-4-yl)-[1-methyl-2-(pyridin-2-yloxy)ethyl]amine] | 0 to 49 | 0 to 49 | 80 to 100 | 50 to 79 | 80 to 100 | 0 to 49 | 80 to 100 | 80 to 100 | 0 to 49 |  |  | 
7 | CC(Nc1ncnc2scc(Cl)c12)c1cnco1 (stereo not drawn) [Compound 21] | 0 to 49 |  | 50 to 79 | 0 to 49 | 0 to 49 |  | 80 to 100 | 80 to 100 | 50 to 79 |  |  | 
8 | CC(Nc1ncnc2scc(Cl)c12)c1nccs1 (stereo not drawn) [Compound 22] | 0 to 49 |  | 80 to 100 | 0 to 49 | 0 to 49 |  | 80 to 100 | 80 to 100 | 50 to 79 |  |  | 
9 | COC(=O)c1ccc(CNc2ncnc3scc(Cl)c23)cc1 [Compound 20] | 0 to 49 |  | 0 to 49 | 0 to 49 | 0 to 49 |  | 0 to 49 | 0 to 49 | 50 to 79 |  |  | 
